This note sets out measurements from patent publication US20250170252A1, “QUINONE PROTECTED FORMS AND CONJUGATES” (CAMBRIDGE ENTERPRISE LIMITED, priority 2022, published 2025).

“Also recorded” adds a separate entry of the source. Some results are limits rather than exact numbers.

Data set [1] can be described thus: In vitro redox-cycling ability, phenol red/horseradish peroxidase assay. As to conditions: HRP/phenol-red reporter assay, absorbance at 610 nm; up to 25 μM. The format is biochemical. How it is done: In vitro redox cycling capability of compounds was assessed by phenol red/horseradish peroxidase (HRP) assay by adaption of a previously described protocol (Assay Drug Dev. Technol., 2008, 6, 505-518). Briefly, stocks were prepared as follows: (1) DTT to a concentration of 2.4 μM in PBS pH 7.4 buffer; (2) compound stocks in PBS pH 7.4 buffer to 3× the desired concentration by 1000× dilution of DMSO stocks; (3) a stock of phenol-red-HRP detection reagent containing 300 μg/mL phenol red and 180 μg/mL HRP enzyme in PBS pH 7.4 buffer; (4) a stock of 1 M NaOH in water; (5) a stock of 100 μM H2O2 in PBS prepared by addition of a 30% solution of H2O2 in water into 1000 μL of PBS. Into each well of a 96 well clear flat-bottomed plate was then added 40 μL of compound stock in PBS followed by 40 μL of DTT stock, followed immediately by 40 μL of phenol-red-HRP reagent. A positive control with 100 μM H2O2 added in place of compound was included. The plate was incubated in the dark at room temperature for 15 min. Following this 20 μL of 1 M NaOH was added to each well to terminate the reaction. Absorbance was immediately measured at 610 nm (MiniMax i3x Imager, Molecular Devices). Absorbance of treated wells was normalised to control wells treated with PBS only (zero redox cycling). All readings were performed in triplicate and error bars display standard error of the mean.

The subject of data set [2] is ovine blood. The data set is described as follows: Methaemoglobin analysis in sheep's blood. As to conditions: in vitro ovine blood model, 1 h incubation, absorbance at 630 nm. The format is cell-based. On the procedure: Defibrinated Oxoid™ sheep's blood (ThermoScientific) was diluted to a 5% v/v suspension in PBS pH 7.4. In a 96 well microtiter plate, 150 μL of blood suspension was added to 50 μL of serially diluted compound in PBS containing a 4× stock of each compound of interest. Serial dilution of compounds from DMSO stocks into PBS was performed to achieve an in-plate DMSO concentration of 0.1%. PBS buffer alone was used as a negative control. Three replicates were performed for each compound concentration analysed. The plate was incubated for the specified time at 37° C. The plate was then centrifuged at 3,500 rpm for 5 min. The supernatant was removed and cells lysed by resuspension in 100 μL of a solution of Triton-X-100 (1%) in PBS. Following this 80 μL of lysed cell contents were transferred to a second microtiter plate for UV measurement. To determine methaemoglobin increase, UV absorbance was measured immediately at 630 nm (MiniMax i3x Imager, Molecular Devices). Methaemoglobin increase was determined by (A630−A^0630)/(A^0630)×100, where A630 is the absorbance of the test well at 630 nm, and A^0630 is the absorbance of the negative control at 630 nm. Mean values and standard error of the mean of three independent replicates are plotted.

The test system of data set [3] is ovine blood. The data set is described as follows: Haemolysis in in vitro ovine blood model. To be noted: compared with β-lapachone 1. The format is cell-based, sheep.
Data set [4] has as its system HL-60 cells. In words: Cellular ROS detection with DCFH-DA. The format is cell-based. To be noted: HL-60, 2′,7′-dichlorodihydrofluorescein diacetate. On the procedure:
To determine ROS generation by compounds in leukaemia cells, HL-60 cells were washed with PBS, then incubated in serum free media (10 mL of 1.6×10^6/mL cell concentration) with 2,7-dichlorofluorescin diacetate (DCFH-DA) at 20 μM for 30 min at 37° C. Following this, the cells were washed with PBS and resuspended in Fluorbrite-DMEM media (ThermoFisher) (10 mL). 450 μL of the cell mixture was seeded into wells of a clear flat bottomed 12 well plate, to which 50 μL of a 10× stock of the compounds in media had been already added, to achieve a final compound concentration of 50 μM. The 10× media stocks were made by 100-fold dilution of DMSO compound stocks, to ensure a final in-plate DMSO concentration of 0.1%. DMSO 0.1% only was used as a negative control. H2O2 was used as a positive control, for which 10 μL of a 30% aqueous solution was dissolved into 1 mL DMSO, then diluted 100-fold into media for plating, to give a final H2O2 concentration of […]. After plating the cells were immediately incubated at 37° C. in the dark for 15 min before the fluorescence of the wells (excitation 485 nm, emission 535 nm) was recorded (MiniMax i3x Imager, Molecular Devices). Values recorded are the mean of three repeat wells, with error bars representing the standard error of the mean.

Data set [5] relates to range of cancer cell lines, including leukaemia, breast, colon, and cervical cancer. The data set is described as follows: Toxicity to a range of cancer cell lines (panel). The format is cell-based. As to conditions: relative to parent drug 1. On the procedure:
Assays assessing cytotoxicity of β-lapachone and derivatives were performed by CellTiter-Blue assay (Promega) according to the manufacturer's instructions. Briefly, adherent cancer-cell lines were plated at 20,000 cells/well in 96 well plates or suspension cell lines were plated at a concentration of 2×10^5 cells/mL in 24 well plates. Compound stocks in media were made by dilution of DMSO stocks containing the compound of interest to obtain a final in-plate DMSO concentration of only 0.1%. Incubation was performed for 48 h. Following incubation, media was replaced with media containing CellTiter-Blue (Promega) in 1:10 dilution and the plates were incubated for 1.5-4 h. The fluorescence of the plates was recorded (excitation 555 nm, emission 585 nm, […] Reader, Molecular Devices). Cell viability was calculated by division of the fluorescence intensity of treated wells by that of the calculated average fluorescence intensity of replicate negative control wells containing cells with 0.1% DMSO only. Values and reported error bars represent the mean and standard error of the mean of three triplicate repeats for each concentration tested.

Data set [6] relates to HL-60 cells. In words: N-acetyl cysteine cytotoxicity assay. The format is cell-based. As to conditions: HL-60. How it is done: For assays involving cytotoxicity of β-lapachone derivatives with and without antioxidant N—-acetyl cysteine, HL-60 cells were plated into 24 well plates at a concentration of 2.5×10^5 cells/mL in 450 μL. To each well was then added 25 μL of drug diluted in PBS to obtain the correct in-plate drug concentration, and 25 μL of PBS or a stock of N-acetyl cysteine at 12 mM in PBS. DMSO was maintained at an in-plate concentration of 0.1%. After 96 h incubation, toxicity was assessed by counting of live cells using the Trypan Blue exclusion method with a Countess II Automated Cell Counter (ThermoFisher Scientific) according to the manufacturer's instructions. Cell viability was determined by division of average live cell number of treated wells by average live cell number for control wells treated with 0.1% DMSO. […] Values recorded are the mean of three repeat wells, with error bars representing the standard error of the mean for each concentration tested.

In a further data set the test system is MOLM-13. The data set is described as follows: Viability assay with small molecule prodrugs, Trypan Blue exclusion, MOLM-13. To be noted: MOLM-13. The format is cell-based. How it is done:
(§1) For assays assessing cytotoxicity of β-lapachone versus small molecule dipeptide prodrugs, suspension cells were plated into 24 well plates at a density of 2.5×10^5 cells/mL in 240 μL. Serial dilutions of compound were made up in PBS. 60 μL of each stock of either PBS, or compound in PBS was added to the cells to achieve the desired final concentration. After the specified incubation time, toxicity was assessed by counting of live cells using the Trypan Blue exclusion method with a Countess II Automated Cell Counter (ThermoFisher Scientific) according to the manufacturer's instructions. Cell viability was determined by division of average live cell number of treated wells by average live cell number for control wells treated with PBS only. Values recorded are the mean of three repeat wells, with error bars representing the standard error of the mean for each concentration tested. IC50 values were calculated using GraphPad Prism software.

A further data set concerns HL-60. The data set is described as follows: Viability assay with small molecule prodrugs, Trypan Blue exclusion, HL-60. The format is cell-based. On the procedure: as §1
In data set [7] the test system is HL-60 cells. The data set is described as follows: Lysosomal inhibition assay with small molecule prodrugs. The format is cell-based. To be noted: HL-60, compared with untreated. How it is done: Assays to assess the effect of lysosomal activity on prodrugs were performed as follows: HL-60 cells were plated into 96 well plates at a concentration of 2.5×10^5 cells/mL in 180 μL media. Cells were treated with 10 μL of a stock of NH4Cl in PBS (to obtain an in-plate concentration of 3 or 30 mM), 10 μL of a dilution of a DMSO stock of E64d in PBS (to obtain an in-plate concentration of 30 μM), PBS only, or a dilution of DMSO in PBS. Cells were incubated for 30 min. Following this, 10 μL of a stock of test compound made by dilution of a DMSO stock into media was added. DMSO was present in-plate at a maximum of 0.2%. Cells were incubated overnight for 16 h. Following incubation, media was replaced with media containing CellTiter-Blue (Promega) in 1:4 dilution and the plates were incubated for 6 h. The fluorescence of the plates was recorded (excitation 555 nm, emission 585 nm, MiniMax i3x Reader, Molecular Devices). Cell viability was calculated by division of the fluorescence intensity of treated wells by that of the calculated average fluorescence intensity of the relevant negative control wells. Values and reported error bars represent the mean and standard error of the mean of three triplicate repeats for each concentration tested.

In the case of `CC1(C)CCC2=C(O1)c1ccccc1C(O)(Cc1ccccc1)C2=O` (stereo not drawn) [Compound 24, 6-benzyl-6-hydroxy-2,2-dimethyl-2,3,4,6-tetrahydro-5H-benzo[h]chromen-5-one], the “redox activity (in vitro redox-cycling capability)” value in data set [1] was “no measurable redox activity; also recorded: non-redox active”. Further, the methaemoglobin formation result in the data set on ovine blood [2] is recorded as “did not occur”. Moreover, in the data set on ovine blood [3], the haemolysis of haemoglobin result is “lower”. Also, the ROS generation entry in the data set with HL-60 cells [4] is given as “did not generate detectable ROS”. Also, the decrease in toxicity in [5] is reported as above 20 fold. The “change of IC50 upon NAC addition” value with HL-60 cells [6] is on record as “unchanged”.

For `CC1(C)CCc2c3c(c4ccccc4c2O1)OCCO3` [Compound 25, 7,7-dimethyl-2,3,5,6-tetrahydro-1,4,8-trioxatriphenylene, reference compound], the “redox activity (in vitro redox-cycling capability)” value in [1] is on record as “no measurable redox activity”. In addition, the methaemoglobin formation result with ovine blood [2] was “did not occur”. For the same compound, the haemolysis of haemoglobin entry in the data set on ovine blood [3] is “lower”.

Take `CC(C)[C@H](NC(=O)OCc1ccccc1)C(=O)N[C@@H](CCCNC(N)=O)C(=O)Nc1ccc(CC2(O)C(=O)C3=C(OC(C)(C)CC3)c3ccccc32)cc1` (stereo partly drawn) [Compound 26, Cbz-Val-Cit-para-aminobenzyl β-lapa-ketol]: the “IC50 relative to 1” value in the data set on MOLM-13 and with HL-60 was 10 fold throughout. Besides, the “toxicity after lysosomal deacidification (NH4Cl) or inhibition (E64d)” value in the data set with HL-60 cells [7] is listed as “less toxic”.
